From US12540120B2, “Herbicidal compounds” (SYNGENTA CROP PROTECTION AG, priority 2019, dated 2026)

Experiments:
Format in all cases: in vivo
Solanum nigrum (SOLNI) [1] = assay: B1 Post-Emergence Efficacy—Test 1; settings: post-emergence application, 1000 g/ha, evaluated after 13 days
Description: (§1) B1 Post-Emergence Efficacy—Test 1 Seeds of a variety of test species are sown in standard soil in pots:—Solanum nigrum (SOLNI), Amaranthus retoflexus (AMARE), Setaria faberi (SETFA), Echinochloa crus-galli (ECHCG), Ipomoea hederacea (IPOHE), Lolium perenne (LOLPE). After 8 days cultivation (post-emergence) under controlled conditions in a glasshouse (at 24/16° C., day/night; 14 hours light; 65% humidity), the plants are sprayed with an aqueous spray solution derived from the formulation of the technical active ingredient in acetone/water (50:50) solution containing 0.5% Tween 20 (polyoxyethylene sorbitan monolaurate, CAS RN 9005-64-5). Compounds are applied at 1000 g/ha. The test plants are then grown in a glasshouse under controlled conditions in a glasshouse (at 24/16° C., day/night; 14 hours light; 65% humidity) and watered twice daily. After 13 days, the test is evaluated for the percentage damage caused to the plant. The biological activities are assessed on a five point scale (5=80-100%; 4=60-79%; 3=40-59%; 2=20-39%; 1=0-19%). A blank value in the table is indicative that the compound was not tested on that species.

[2] = test system: Ipomoea hederacea (IPOHE); assay: B1 Post-Emergence Efficacy—Test 1; settings: post-emergence application, 1000 g/ha, evaluated after 13 days
Description: as §1

Lolium perenne (LOLPE) [3] = assay: B1 Post-Emergence Efficacy—Test 1; settings: post-emergence application, 1000 g/ha, evaluated after 13 days
Description: as §1

Setaria faberi (SETFA) [4] = assay: B1 Post-Emergence Efficacy—Test 1; settings: post-emergence application, 1000 g/ha, evaluated after 13 days
Description: as §1

[5] = test system: Amaranthus retoflexus (AMARE); assay: B1 Post-Emergence Efficacy—Test 1; settings: post-emergence application, 1000 g/ha, evaluated after 13 days
Description: as §1

[6] = test system: Echinochloa crus-galli (ECHCG); assay: B1 Post-Emergence Efficacy—Test 1; settings: post-emergence application, 1000 g/ha, evaluated after 13 days
Description: as §1

Solanum nigrum (SOLNI) [7] = assay: B4 Pre-Emergence Efficacy—Test 1; settings: pre-emergence application, 1000 g/ha, evaluated after 13 days
Description: (§2) B4 Pre-Emergence Efficacy—Test 1 Seeds of a variety of test species were sown in standard soil in pots: Solanum nigrum (SOLNI), Amaranthus retoflexus (AMARE), Setaria faberi (SETFA), Echinochloa crus-galli (ECHCG), Ipomoea hederacea (IPOHE), Lolium perenne (LOLPE). After cultivation for one day (pre-emergence) under controlled conditions in a glasshouse (at 24/16° C., day/night; 14 hours light; 65% humidity), the plants were sprayed with an aqueous spray solution derived from the formulation of the technical active ingredient in acetone/water (50:50) solution containing 0.5% Tween 20 (polyoxyethelyene sorbitan monolaurate, CAS RN 9005-64-5). Compounds are applied at 1000 g/ha. The test plants were then grown in a glasshouse under controlled conditions (at 24/16° C., day/night; 14 hours light; 65% humidity) and watered twice daily. After 13 days, the test is evaluated for the percentage damage caused to the plant. The biological activities are assessed on a five point scale (5=80-100%; 4=60-79%; 3=40-59%; 2=20-39%; 1=0-19%). A blank value in the table is indicative that the compound was not tested on that species.

[8] = test system: Ipomoea hederacea (IPOHE); assay: B4 Pre-Emergence Efficacy—Test 1; settings: pre-emergence application, 1000 g/ha, evaluated after 13 days
Description: as §2

Lolium perenne (LOLPE) [9] = assay: B4 Pre-Emergence Efficacy—Test 1; settings: pre-emergence application, 1000 g/ha, evaluated after 13 days
Description: as §2

Setaria faberi (SETFA) [10] = assay: B4 Pre-Emergence Efficacy—Test 1; settings: pre-emergence application, 1000 g/ha, evaluated after 13 days
Description: as §2

[11] = test system: Amaranthus retoflexus (AMARE); assay: B4 Pre-Emergence Efficacy—Test 1; settings: pre-emergence application, 1000 g/ha, evaluated after 13 days
Description: as §2

[12] = test system: Echinochloa crus-galli (ECHCG); assay: B4 Pre-Emergence Efficacy—Test 1; settings: pre-emergence application, 1000 g/ha, evaluated after 13 days
Description: as §2

Solanum nigrum (SOLNI) [13] = assay: B5 Pre-Emergence Efficacy—Test 2; settings: 250 g/ha, evaluated after 13 days
Method in brief: (§3)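 Scores are percentage plant damage on a five-point scale (5=80-100%; 4=60-79%; 3=40-59%; 2=20-39%; 1=0-19%), taken 13 days after a pre-emergence spray of 250 g/ha. Sowing preceded spraying by one day; glasshouse at 24/16 °C, 65% humidity.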

[14] = test system: Amaranthus retoflexus (AMARE); assay: B5 Pre-Emergence Efficacy—Test 2; settings: 250 g/ha, evaluated after 13 days
Method in brief: as §3

Solanum nigrum (SOLNI) [15] = assay: B2 Post-Emergence Efficacy—Test 2; settings: post-emergence application, 250 g/ha, evaluated after 13 days (Test 2)
Method in brief: (§4)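 Post-emergence spray, 250 g/ha, acetone/water 50:50 + 0.5% Tween 20, on 8-day-old pot plants; glasshouse 24/16 °C, 14 h light, 65% RH, watered twice daily. Damage % read at 13 d, scored 1–5 (1=0-19%, 5=80-100%).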

[16] = test system: Ipomoea hederacea (IPOHE); assay: B2 Post-Emergence Efficacy—Test 2; settings: post-emergence application, 250 g/ha, evaluated after 13 days (Test 2)
Method in brief: as §4

Lolium perenne (LOLPE) [17] = assay: B2 Post-Emergence Efficacy—Test 2; settings: post-emergence application, 250 g/ha, evaluated after 13 days (Test 2)
Method in brief: as §4

Setaria faberi (SETFA) [18] = assay: B2 Post-Emergence Efficacy—Test 2; settings: post-emergence application, 250 g/ha, evaluated after 13 days (Test 2)
Method in brief: as §4

[19] = test system: Amaranthus retoflexus (AMARE); assay: B2 Post-Emergence Efficacy—Test 2; settings: post-emergence application, 250 g/ha, evaluated after 13 days (Test 2)
Method in brief: as §4

[20] = test system: Echinochloa crus-galli (ECHCG); assay: B2 Post-Emergence Efficacy—Test 2; settings: post-emergence application, 250 g/ha, evaluated after 13 days (Test 2)
Method in brief: as §4

[21] = test system: Ipomoea hederacea (IPOHE); assay: B5 Pre-Emergence Efficacy—Test 2; design: key: 5-point scale: 5=80-100%, 4=60-79%, 3=40-59%, 2=20-39%, 1=0-19% damage; settings: 250 g/ha, evaluated after 13 days
Method in brief: as §3

Lolium perenne (LOLPE) [22] = assay: B5 Pre-Emergence Efficacy—Test 2; design: key: 5-point scale: 5=80-100%, 4=60-79%, 3=40-59%, 2=20-39%, 1=0-19% damage; settings: 250 g/ha, evaluated after 13 days
Method in brief: as §3

Setaria faberi (SETFA) [23] = assay: B5 Pre-Emergence Efficacy—Test 2; design: key: 5-point scale: 5=80-100%, 4=60-79%, 3=40-59%, 2=20-39%, 1=0-19% damage; settings: 250 g/ha, evaluated after 13 days
Method in brief: as §3

[24] = test system: Echinochloa crus-galli (ECHCG); assay: B5 Pre-Emergence Efficacy—Test 2; design: key: 5-point scale: 5=80-100%, 4=60-79%, 3=40-59%, 2=20-39%, 1=0-19% damage; settings: 250 g/ha, evaluated after 13 days
Method in brief: as §3

Cc1nn(C)c(=O)c(-c2c(F)ccc(Cl)c2CCc2ccc(C#N)cc2)c1O [Compound A-1.036, 4-[2-[6-chloro-3-fluoro-2-(5-hydroxy-2,6-dimethyl-3-oxo-pyridazin-4-yl)phenyl]ethyl]benzonitrile]
5 (5=80-100%): percentage damage caused to the plant, five point scale, SOLNI (Solanum nigrum (SOLNI) [1]) | percentage damage caused to the plant, five point scale, IPOHE [2] | percentage damage caused to the plant, five point scale, LOLPE (Lolium perenne (LOLPE) [3]) | percentage damage caused to the plant, five point scale, SETFA (Setaria faberi (SETFA) [4]) | percentage damage caused to the plant, five point scale, AMARE [5] | percentage damage caused to the plant, five point scale, ECHCG [6] | percentage damage caused to the plant, five point scale, SOLNI (Solanum nigrum (SOLNI) [7]) | percentage damage caused to the plant, five point scale, IPOHE [8] | percentage damage caused to the plant, five point scale, LOLPE (Lolium perenne (LOLPE) [9]) | percentage damage caused to the plant, five point scale, SETFA (Setaria faberi (SETFA) [10]) | percentage damage caused to the plant, five point scale, AMARE [11] | percentage damage caused to the plant, five point scale, ECHCG [12] | Control of weed species after pre-emergence application, SOLNI (percentage damage, five point scale) (Solanum nigrum (SOLNI) [13]) | Control of weed species after pre-emergence application, AMARE (percentage damage, five point scale) [14] | percentage damage caused to the plant, five point scale, SOLNI (Solanum nigrum (SOLNI) [15]) | percentage damage caused to the plant, five point scale, IPOHE [16] | percentage damage caused to the plant, five point scale, LOLPE (Lolium perenne (LOLPE) [17]) | percentage damage caused to the plant, five point scale, SETFA (Setaria faberi (SETFA) [18]) | percentage damage caused to the plant, five point scale, AMARE [19] | percentage damage caused to the plant, five point scale, ECHCG [20] | Control of weed species after pre-emergence application, IPOHE (percentage damage, five point scale) [21] | Control of weed species after pre-emergence application, LOLPE (percentage damage, five point scale) (Lolium perenne (LOLPE) [22]) | Control of weed species after pre-emergence application, SETFA (percentage damage, five point scale) (Setaria faberi (SETFA) [23]) | Control of weed species after pre-emergence application, ECHCG (percentage damage, five point scale) [24]
